BigSolDB 2.1

Oc1ccc(/C=C/c2cc(O)cc(O)c2)cc1
solubility (mole fraction)
Conditions | in THF | in acetone | in ethanol | in ethyl acetate | in isopropanol | in methanol | in n-butanol | in n-hexanol | in n-pentanol | in n-propanol
278.2 K | 0.104 | 0.0849 | 0.0117 | 0.0062 | 0.0053 | 0.0108 | 0.0041 | 0.004 | 0.004 | 0.0068
288.2 K | 0.106 | 0.0859 | 0.0139 | 0.0106 | 0.0062 | 0.012 | 0.0058 | 0.0052 | 0.0055 | 0.0088
298.2 K | 0.109 | 0.0866 | 0.0169 | 0.0164 | 0.009 | 0.0135 | 0.0083 | 0.0075 | 0.0093 | 0.0113
308.2 K | 0.112 | 0.0874 | 0.0198 | 0.0214 | 0.011 | 0.0151 | 0.0103 | 0.0087 | 0.0109 | 0.0128
318.2 K | 0.114 | 0.0886 | 0.0223 | 0.0254 | 0.0138 | 0.0166 | 0.0122 | 0.0108 | 0.0143 | 0.0153
